# Measured values taken from patent publication US5578496A, “Detection of autoantibodies associated with the disease myasthenia gravis” (Board of Regents, Baylor College of Medicine, priority 1994, dated 1996).
# Where a SMILES comes first, the peptide text is derived from it. Bridges are numbered along the chain shown (N, C = ends).
# Tests used:
# [1] = test system: antibodies against human ACHR α chain peptides; assay: Binding of anti-peptide antibodies to the peptides on Co-Bind plate; design: species or system mice; details: antisera diluted 1:500 (v/v) with PBS/0.05% casein; corrected for nonspecific binding to casein
# Description: Anti-peptide antibodies were raised in outbred mice by immunization in the hind footpads of 50 μg of synthetic peptide in 100 μl emulsion prepared from equal volumes of PBS and Freund's complete adjuvant. The immunizations were done on day 1, day 15, day 30 and day 45. Rabbit immune IgG fractions with specificity against human IgG and human IgM and mouse IgG and IgM were obtained from DAKO Co. (DAKO-immunoglobulins a/s, Denmark) and Accurate Chemical Scientific Corp. (Westbury, N.Y.), respectively.
# 1.0 mg of peptide was dissolved in 5 μl of dimethylformamide and then diluted to 50 μg/ml with 0.15M NaCl in 0.01M sodium phosphate buffer, pH 7.2, containing 0.01% thimerosal (PBS). Aliquots of the peptide solution, were applied to wells of the 96-well Co-Bind plate. The plates were incubated at room temperature overnight with continuous gentle rocking. After washing three times with PBS, the wells were quenched (3 hrs., room temperature) with 0.2 ml of 1.0M glycine-NaOH, pH 7.2. After washing the wells three times with PBS, an aliquot (100 μl) of a 0.1% solution of casein in PBS were added to each well and the plates were incubated at 37° C. for 90 min to block the remaining reactive groups on the wells. The plates were then washed three times with PBS and incubated (37° C., 4 hrs) with 100 μl of plasma or mouse antiserum (1:200 or 1:500 dilution with PBS containing 0.1% casein). For binding to peptide α182-198, the plates were blocked with, and plasma were diluted in, 0.5% (instead of 0.1%) casein in PBS. After washing four times with PBS, the plates were incubated (4° C., overnight) with 100 μl of rabbit anti-human (IgG+IgM) or anti-mouse (IgG+IgM) (2.5 μg/ml) in PBS containing 0.1% casein. The plates were washed four times with PBS and incubated (3 hrs., room temperature) with ^125 I-labeled protein A (2×10^5 cpm) in 100 μl of PBS-0.1% casein. After washing five times with PBS, bound radioactivity was removed from the wells, by the addition of 100 μl of 5% SDS in 0.2N NaOH. The plates were allowed to stand for 20 min at room temperature and the solutions were then transferred quantitatively to small test tubes for counting. This procedure was repeated three times, and the solutions in each case were added to the respective tubes. The samples were counted on a Beckman 4000 gamma counter. The radioactivity bound by three unrelated proteins (casein, cytochrome C and bovine serum albumin) and a nonsense peptide (ESSGTGIESSGTGI) (Atassi et al. 1987) were used as controls to correct for nonspecific binding. It should be noted that in other experiments, in which the plates were blocked and all dilutions were made with PBS containing human adult hemoglobin or bovine serum albumin, the non-specific binding was considerably higher than when casein was used.
# To confirm that the synthetic human AChR peptides can be coupled to Co-Bind plate, they were used to raise anti-peptide antibodies in mice. The peptides were bound onto the well of Co-Bind plates, followed by reaction with the respective anti-peptide antibody, pre-diluted 1:500 (v/v) with PBS/0.05% casein.
# [2] = test system: experimental autoimmune myasthenia gravis (EAMG); assay: Electromyography (repetitive nerve stimulation) for electrophysiological EAMG after immunization with Torpedo AChR; assay type: in vivo, C57/BL6 mice
# Description: Six weeks old C57/BL6 mice were purchased from Charles River Breeding Laboratories (Wilmington, Mass.). Preimmune sera were obtained from the mice for use as controls in subsequent antibody binding assays. […] Then, on day 0, the mice were immunized subcutaneously in one hind footpad and intramuscularly in the same side shoulder with 20 μg of Torpedo AChR in 100 μl emulsion containing equal volumes of complete Freund's adjuvant and PBS. Thirty days later, the mice were immunized with a similar dose of the receptor in the opposite footpad and shoulder. On the 37th day, test bleeds were obtained from the mice for determination of the antibody titers. Electrophysiological studies were performed on the 38th and 39th days. Finally, the mice were sacrificed on the 40th day and lymph node cells were obtained for T cell studies. To document the electrophysiological evidence of EAMG, amplitudes of serial muscle action potentials were measured by electromyography (EMG) during the repetitive stimulation of the nerve in immunized mice, using the Mystro EMG system (TECA Corporation). A pair of wire electrodes were surgically implanted, encircling the sciatic nerve, two days before EMG. The nerve was stimulated through the implanted electrodes by 3 Hz trains of supramaximal electric current with a duration of 200 microseconds. The corresponding muscle action potentials were recorded with an electrode subcutaneously inserted over the gastrocnemius muscle. A reference electrode was placed at the ankle. Ether inhalation was used during the surgical and recording procedures. […] Students' t-test was used to analyze the differences of amplitude changes between the two groups. A typical myasthenic response of a greater than 10% decrement was considered to constitute an electrophysiological evidence of EAMG. The frequency of electrophysiological EAMG was calculated in each group and analyzed by chi-square test.
# peptide α125-148 = assay: Radioimmunoassay of anti-AChR antisera from pretreated mice: antibody binding to peptide α125-148; assay type: in vivo, C57/BL6 mice
# Description: Six weeks old C57/BL6 mice were purchased from Charles River Breeding Laboratories (Wilmington, Mass.). Preimmune sera were obtained from the mice for use as controls in subsequent antibody binding assays. After 2-weeks rest, the mice were divided into three groups which received, at eleven, seven and three days before immunization with AChR, an intraperitoneal injection (5 μg in 25 μl of PBS [0.15M NaCl in 0.01M sodium phosphate buffer, pH 7.2]) of either the mPEG-(α125-148) conjugate (Group 1), mPEG-nonsense peptide conjugate (Group 2) or unaltered free peptide α125-148 (Group 3) (FIG. 5). Then, on day 0, the mice were immunized subcutaneously in one hind footpad and intramuscularly in the same side shoulder with 20 μg of Torpedo AChR in 100 μl emulsion containing equal volumes of complete Freund's adjuvant and PBS. Thirty days later, the mice were immunized with a similar dose of the receptor in the opposite footpad and shoulder. On the 37th day, test bleeds were obtained from the mice for determination of the antibody titers. Electrophysiological studies were performed on the 38th and 39th days. Finally, the mice were sacrificed on the 40th day and lymph node cells were obtained for T cell studies.
# One mg of the synthetic peptide was dissolved in 50 μl dimethylformamide and then diluted with PBS to 25 μg/ml. A solution of Torpedo AChR in PBS was prepared to contain 2.5 μg/ml. Aliquots (50 μl/well) of the peptide or AChR solutions were added to a 96-well microtiter plate (Falcon Micro Test III flexible assay plate, Becton Dickinson, Oxcard, Calif.) and the plates were incubated at room temperature overnight. After washing 3 times with PBS, the plates were blocked with 0.25% bovine serum albumin (BSA [bovine serum albumin]) in PBS (50 μl/well) at 37° C. for 90 minutes. The plates were washed again 5 times with PBS and to each well was added 50 μl of the serum from AChR-immunized mice, pre-diluted with PBS containing 0.10% BSA, and the plates were covered and allowed to stand at room temperature overnight. After 5 washes with PBS, 50 μl of rabbit IgG antibodies (2.5 μg/ml) against mouse IgG and IgM (Accurate Chemical Scientific Corporation, Westbury, N.Y.) was added to each well and the plates were incubated at 37° C. for 3 hours. The plates were then washed 5 times with PBS and ^125 I-labeled protein A (2×10^5cpm in 50 μl of PBS-0.1% BSA) was added to each well. The plates were incubated for 3 hours at room temperature, after which they were washed and the wells were cut out and counted for bound radioactivity. Pre-immune serum samples, obtained from the mice prior to any experimental treatments, were used as controls to correct for non-specific binding.
# [3] = 5 μg i.p. at 11, 7 and 3 days before immunization with Torpedo AChR, EMG on days 38-39
compound,measurement,setting,value
"α23-38: synthetic peptide, residues α23-38 of human AChR α-chain (EDHRQVVEVTVGLQLI)",Antibody Binding to immunizing Peptide (CPM),[1],71893 CPM
"α45-60: synthetic peptide, residues α45-60 of human AChR α-chain (EVNQIVTTNVRLKQQW)",Antibody Binding to immunizing Peptide (CPM),[1],82404 CPM
"α134-150: synthetic peptide, residues α134-150 of human AChR α-chain (HFPFDEQNGSMKLGTWT)",Antibody Binding to immunizing Peptide (CPM),[1],52077 CPM
"α100-115: synthetic peptide, residues α100-115 of human AChR α-chain (FAIVKFTKVLLQYTGH)",Antibody Binding to immunizing Peptide (CPM),[1],57717 CPM
"CC[N+](C)(C)c1cccc(O)c1 [edrophonium chloride, reference compound]",decremental amplitude after edrophonium,"[2]; EAMG-positive mouse with -33% decrement, 3 minutes after i.p. injection of 250 μg",-13%
same,reversibility of typical myasthenic decremental response,[2]; i.p. injection of 250 μg,reversible
CC[C@H](C)[C@H](NC(=O)CNC(=O)[C@H](CC(C)C)NC(=O)[C@H](CCCCN)NC(=O)[C@H](CCSC)NC(=O)[C@@H](NC(=O)[C@@H]1CSSC[C@H](NC(=O)[C@H](Cc2ccc(O)cc2)NC(=O)[C@H](CO)NC(=O)[C@@H](N)CCCCN)C(=O)N[C@@H](CCC(=O)O)C(=O)N[C@@H]([C@@H](C)CC)C(=O)N[C@@H]([C@@H](C)CC)C(=O)N[C@@H](C(C)C)C(=O)N[C@@H]([C@@H](C)O)C(=O)N[C@@H](Cc2c[nH]cn2)C(=O)N[C@@H](Cc2ccccc2)C(=O)N2CCC[C@H]2C(=O)N[C@@H](Cc2ccccc2)C(=O)N[C@@H](CC(=O)O)C(=O)N[C@@H](CCC(N)=O)C(=O)N[C@@H](CCC(N)=O)C(=O)N[C@@H](CC(N)=O)C(=O)N1)[C@@H](C)O)C(=O)O [α125-148] (H-KSYCEIIVTHFPFDQQNCTMKLGI-OH; disulfide 4-18),"antibody binding to peptide α125-148, mean net cpm ± standard deviation","peptide α125-148; anti-AChR antisera of individual mice, day 37 bleeds",3626+2214 cpm
same,"antibody binding to peptide α125-148, pooled antisera in serial dilutions","peptide α125-148; pooled serum of each group, various dilutions",consistently greater than the other two controls
same,antibodies bound to peptide α125-148 in anti-AChR antisera,peptide α125-148; pretreatment prior to immunization with Torpedo AChR,no decrease
same,mean amplitude change of muscle action potentials,[2]; [3],-15.9%
same,mice showing a decremental response greater than 10%,[2]; [3],56%
"α78-93: synthetic peptide, residues α78-93 of human AChR α-chain (IHIPSEKIWRPDLVLY)",Antibody Binding to immunizing Peptide (CPM),[1],4433 CPM
"α146-162: synthetic peptide, residues α146-162 of human AChR α-chain (LGTWTYDGSVVAINPES)",Antibody Binding to immunizing Peptide (CPM),[1],13649 CPM
"α170-186: synthetic peptide, residues α170-186 of human AChR α-chain (FMESGEWVIKESRGWKH)",Antibody Binding to immunizing Peptide (CPM),[1],71323 CPM
"α158-174: synthetic peptide, residues α158-174 of human AChR α-chain (INPESDQPDLSNFMESG)",Antibody Binding to immunizing Peptide (CPM),[1],14799 CPM
"α56-71: synthetic peptide, residues α56-71 of human AChR α-chain (LKQQWVDYNLKWNPDD)",Antibody Binding to immunizing Peptide (CPM),[1],36038 CPM
"α34-49: synthetic peptide, residues α34-49 of human AChR α-chain (GLQLIQLINVDEVNQI)",Antibody Binding to immunizing Peptide (CPM),[1],62360 CPM
"α194-210: synthetic peptide, residues α194-210 of human AChR α-chain (PDTPYLDITYHFVMQRL)",Antibody Binding to immunizing Peptide (CPM),[1],66804 CPM
"α1-16: synthetic peptide, residues α1-16 of human AChR α-chain (SEHETRLVAKLFKDYS)",Antibody Binding to immunizing Peptide (CPM),[1],78940 CPM
"α67-82: synthetic peptide, residues α67-82 of human AChR α-chain (WNPDDYGGVKKIHIPS)",Antibody Binding to immunizing Peptide (CPM),[1],22884 CPM
"α89-104: synthetic peptide, residues α89-104 of human AChR α-chain (DLVLYNNADGDFAIVK)",Antibody Binding to immunizing Peptide (CPM),[1],29199 CPM
